Values joined by “and” are separate entries in the source; they are usually repeats but may differ in a detail not shown here. Identical values can stand only once. Where a SMILES comes first, the peptide text is derived from it. [ ]: non-standard residue; d: D form. Dmt = Cc1cc(O)cc(C)c1C[C@H](N)C(=O)O

For one series, the system named is dystrophin. As to the kind of experiment: Western blot of dystrophin in tibialis anterior (TA) muscle of treated mdx mice. Conditions: 7 weeks; for % Dystrophin Average: average of treatment group (n=14-15 mdx mice); for % Dystrophin: individual mdx mouse. In kind it is in vivo, mouse (C57BL/10ScSn-Dmdmdx/J. The protocol:
(§1) Treatment groups. Four-week-old C57BL/10ScSnJ (stock #000476) and C57BL/10ScSn-Dmdmdx/J mice (stock #001801) were sourced from Jackson Laboratory in Bar Harbor, USA and sorted into a total of five treatment groups (Table 1). The C57BL/10ScSnJ (BL10) mice received vehicle #1 (1×PBS) and vehicle #2 (0.9% Saline). Of the C57BL/10ScSn-Dmdmdx/J (mdx) groups, one received vehicle #1(1×PBS) and vehicle #2 (0.9% Saline), the second group was treated with PMO (125 mg/kg) and vehicle #2 (0.9% Saline), the third group was treated with vehicle #1 (1×PSB) and MTP-131 (5 mg/kg), and the final group was treated with both PMO (125 mg/kg) and MTP-131 (5 mg/kg). PMO compound and the respective vehicle (1×PBS) was administered weekly via retro-orbital injection. MTP-131 compound and the vehicle (0.9% saline) were administered daily via intraperitoneal (IP) injection. Treatment was for a total of 7 weeks.
Experimental endpoint measures. Upon arrival from Jackson laboratory to the Life Science Research Institute (LSRI) animal facility in Halifax, Canada, 4 week-old BL10 and mdx mice were subjected to a one-week acclimation period to the new facility, after which they were weighed, ear-tagged, and randomized. Once randomized, the animals were treated daily for 7 weeks. During treatment, mice were visually assessed for health (altered food and water consumption, abnormal breathing, circling, eye/hair matting and any other features of abnormal appearance). All treatment groups followed the experimental design outlined in Table 2. In vitro force measurements and takedowns were performed throughout weeks 6-7. Takedowns were staggered to accommodate the in vitro force schedule. Scheduling was representative of the treatment groups.
Treatment preparation—PMO. The phosphorodiamidate morpholino oligomer (PMO) was sourced from Gene Tools, LLC. The PMO used was mExon 23(+07-18) (5′-[…]-3′) (SEQ ID NO: 1) against the boundary sequences of exon and intron 23 of the mouse dystrophin gene. The PMO was prepared fresh weekly by diluting the compound in 1×PBS to the stock concentration of 100 mg/ml. Any remaining compound was stored at 4° C.
Treatment preparation—MTP-131. MTP-131 dosing formulation was prepared weekly and filtered through a […] polyether sulfone (PES) filter. Because MTP-131 is extremely hygroscopic it was conditioned before use and weighed immediately after. If possible, MTP-131 was weighed in a low moisture environment (<20% RH). Prior to use, MTP-131 was removed from the refrigerator. The un-opened bottle was placed in a low moisture environment (<20% RH) and allowed to equilibrate at room temperature for at least 2 hours. Quickly, an aliquot was weighed for use without returning any un-used standard to the bottle and the bottle was immediately tightly capped. Immediately after use, the inside of the bag was wiped with a paper towel to remove any moisture, and the reference bottle (tightly capped) was placed back into the aluminum bag, re-sealed and placed back in 2-8° C. storage.
Treatment administration—PMO. PMO compound was delivered weekly via retro-orbital intravenous injection using a 28-gauge needle. Mice were gently removed from their cage and anesthetized using 5% isoflurane and maintained with 1.5-2% isoflurane. Once the pedal reflex was absent, the mouse was positioned on its side, and loose skin behind the shoulders and ears pinned back using the thumb and middle finger of the non-dominant hand. The skin surrounding the eye was drawn back using the index finger, allowing the eye to protrude slightly. The needle was inserted carefully at a 30° angle with the bevel away from the eye, lateral to the medial canthus, through the conjunctival membrane. Once in the retro-orbital sinus, the compound was slowly injected (10 μl/5-10 seconds). The needle was then carefully removed to prevent injury and leakage. If more than 20 μl of leakage occurred, the injectable was aspirated back into the syringe and injected again. […]
A general note: A western blot detects proteins with antibodies after separation by electrophoresis.

Series [1] has as its system C57BL/10ScSn-Dmdmdx/J (mdx) mice. As to the kind of experiment: H&E inflammation analysis of TA muscle sections. In kind it is in vivo, mouse. As to conditions: as compared to the mdx vehicle group; PMO 125 mg/kg, MTP-131 5 mg/kg. The protocol: as §1
Histological analysis—H&E—Inflammation Analysis. TA muscle (n=8/group) was sectioned at 10 μm (2 sections/slide) and stored at −80° C. until the staining was performed. Slides were stained with Hematoxylin & Eosin (H&E) and were analyzed for percent inflammation. An inflammatory focus (pl. foci) was measured by counting 10 or more inflammatory cells in a single cluster. These foci areas were measured in mm2 and then compared to the tissue's total area, from which a percentage was calculated. […]

Where [2] appears, read: PMO 125 mg/kg weekly, MTP-131 5 mg/kg daily.
The mark [3] stands for this setting: Run 1, Gel #5, PMO 125 mg/kg weekly retro-orbital, MTP-131 5 mg/kg daily IP.
The mark [4] stands for this setting: Run 1, Gel #6, PMO 125 mg/kg weekly, MTP-131 5 mg/kg daily.
Setting [5] is: Run 2, Gel #7, PMO 125 mg/kg weekly, MTP-131 5 mg/kg daily.
Where [6] appears, read: Run 2, Gel #8, PMO 125 mg/kg weekly, MTP-131 5 mg/kg daily.
The mark [7] stands for this setting: Run 3, Gel #9, PMO 125 mg/kg weekly, MTP-131 5 mg/kg daily.
Setting [8] is: Run 3, Gel #10, PMO 125 mg/kg weekly, MTP-131 5 mg/kg daily.

On to “PMO: phosphorodiamidate morpholino oligomer mExon 23(+07-18), 5′-GGCCAAACCTCGGCTTACCTGAAAT-3′ (SEQ ID NO: 1), against exon/intron 23 boundary of mouse dystrophin gene; Gene Tools (all phosphorodiamidate morpholino (PMO)) [reference compound]”, for which, in the series with dystrophin (setting [2]), the “% Dystrophin Average” value is 3.66%. In addition, the “% Dystrophin” value in the series on dystrophin (setting [3]) is 6.0% and 4.2%; in the series with dystrophin (setting [4]) it was 4.7% and 2.7%; in the series with dystrophin (setting [5]), 1.2% and 1.7% and 7.4%; with dystrophin (setting [6]), 3.2% and 1.4%; in the series on dystrophin (setting [7]) it was 1.4% and 3.9%; in the series on dystrophin (setting [8]), 3.1% and 2.9% and 7.2%. The “inflammation in the tibialis anterior muscles” value in series [1] is on record as “reduced”.

For the compound `Cc1cc(O)cc(C)c1C[C@H](NC(=O)[C@H](N)CCCNC(=N)N)C(=O)N[C@@H](CCCCN)C(=O)N[C@@H](Cc1ccccc1)C(N)=O` [MTP-131, H-D-Arg-2′6′-Dmt-Lys-Phe-NH2] (H-[dR][Dmt]KF-NH2), in the series on dystrophin (setting [2]), the “% Dystrophin Average” value was found to be 0.70%. Also, the “% Dystrophin” value in the series with dystrophin (setting [3]) was 0.3% and 0.4% and 0.6%; in the series with dystrophin (setting [4]), 1.0% and 1.2%; with dystrophin (setting [5]) it was 0.8%; in the series with dystrophin (setting [6]), 0.8%; in the series on dystrophin (setting [7]) it was 1.0%; in the series on dystrophin (setting [8]) it was 0%. Also, the “% Dystrophin” value in the series with dystrophin (summary by treatment group, PMO 125 mg/kg weekly, MTP-131 5 mg/kg daily) is 1.00% (3×) and 1.10% and 0.00% (2×) and 0.80% (4×) and 0.30% and 0.40% and 0.60% and 1.20%. Besides, the “inflammation in the tibialis anterior muscles” value in series [1] is “reduced”.

The values are drawn from patent US20250082714A1, “METHODS AND COMPOSITIONS FOR THE TREATMENT OR PREVENTION OF MUSCULAR DYSTROPHY” (Stealth BioTherapeutics Inc., priority 2021, published 2025).
